Source: patent US20260015339A1, “CALIX[4]ARENES WITH HIGH ANTICANCER ACTIVITY” (UNIVERSITE GRENOBLE ALPES, priority 2023, published 2026)

Experiments:
Experiment in all cases: PROLiFiler-Cell Panel Screening (CellTiterGlo)
Type in all cases: cell-based
[1] = system: EPLC-272H; settings: Homo sapiens, Lung, 72 hours
Description: (§1) For the assays, cells were seeded in white cell culture-treated flat and clear bottom 384-well multiwall plates and incubated at 37° C. overnight before the calix[4]arene of the formula (2) or the reference compound were added. After incubation for 72 hours at 37° C. at 5% or 10% CO2 depending on the medium, cell plates were equilibrated to room temperature (i.e. 20° C.) for one hour, CellTiterGlo® reagent from the firm Promega was added and luminescence was measured approximately an hour later using a luminometer.
(§2) Raw data were converted into percent cell viability relative to the high and low control, which were set to 100% and 0%, respectively.

[2] = system: DV90; settings: Homo sapiens, DV-90; Lung, DV90, 72 hours
Description: as §1, §2

[3] = system: HT-1080; settings: Homo sapiens; Fibrosarcoma, HT-1080, 72 hours
Description: as §1, §2

[4] = system: HL-60; settings: Homo sapiens; Blood, HL-60, 72 hours
Description: as §1, §2

[5] = system: Caki-1; settings: Homo sapiens; Kidney, Caki-1, 72 hours
Description: as §1, §2

[6] = system: A375; settings: Homo sapiens, A-375; Skin, A375, 72 hours
Description: as §1, §2

[7] = system: MDA-MB-468; settings: Homo sapiens; Breast, MDA-MB-468, 72 hours
Description: as §1, §2

[8] = system: SW-1783; settings: Homo sapiens, SW1783; Brain, SW-1783, 72 hours
Description: as §1, §2

[9] = system: BT-20; settings: Homo sapiens; Breast, BT-20, 72 hours
Description: as §1, §2

[10] = system: EFM-192A; settings: Breast, 72 hours
Description: as §1, §2

[11] = system: JIMT-1; settings: Homo sapiens; Breast, JIMT-1, 72 hours
Description: as §1, §2

[12] = system: HuH7; settings: Homo sapiens, Huh-7; Liver, HuH7, 72 hours
Description: as §1, §2

[13] = system: COR-L279; settings: Homo sapiens; Lung, COR-L279, 72 hours
Description: as §1, §2

[14] = system: SNU-1; settings: Homo sapiens, SNU1; Stomach, SNU-1, 72 hours
Description: as §1, §2

[15] = system: MV4-11; settings: Homo sapiens; Blood, MV4-11, 72 hours
Description: as §1, §2

[16] = system: HCC827; settings: Homo sapiens; Lung, HCC827, 72 hours
Description: as §1, §2

[17] = system: DU-145; settings: Homo sapiens; Prostate, DU-145, 72 hours
Description: as §1, §2

[18] = system: Caki-2; settings: Homo sapiens; Kidney, Caki-2, 72 hours
Description: as §1, §2

[19] = system: K562; settings: Homo sapiens; Blood, K562, 72 hours
Description: as §1, §2

[20] = system: SW620; settings: Homo sapiens, SW-620; Colon, SW620, 72 hours
Description: as §1, §2

[21] = system: A172; settings: Homo sapiens, A 172; Brain, A172, 72 hours
Description: as §1, §2

[22] = system: A2058; settings: Homo sapiens; Skin, A2058, 72 hours
Description: as §1, §2

[23] = system: A498; settings: Homo sapiens; Kidney, A498, 72 hours
Description: as §1, §2

[24] = system: SNU840; settings: SNU-840; Ovary, SNU840, 72 hours
Description: as §1, §2

[25] = system: NCI-H1573; settings: Homo sapiens; Lung, NCI-H1573, 72 hours
Description: as §1, §2

[26] = system: COV434; settings: Ovary, COV434, 72 hours
Description: as §1, §2

[27] = system: AsPC-1; settings: Homo sapiens, ASPC1; Pancreas, AsPC-1, 72 hours
Description: as §1, §2

[28] = system: H4; settings: Brain, H4, 72 hours
Description: as §1, §2

[29] = system: BEN; settings: Lung, 72 hours
Description: as §1, §2

[30] = system: NCI-H1563; settings: Homo sapiens; Lung, NCI-H1563, 72 hours
Description: as §1, §2

[31] = system: SW948; settings: Homo sapiens; Colon, SW948, 72 hours
Description: as §1, §2

[32] = system: EFO-27; settings: Homo sapiens; Ovary, EFO-27, 72 hours
Description: as §1, §2

[33] = system: A549; settings: Homo sapiens; Lung, A549, 72 hours
Description: as §1, §2

[34] = system: SK-OV3; settings: Homo sapiens, SK-OV-3; Ovary, SK-OV3, 72 hours
Description: as §1, §2

[35] = system: MDA MB 435; settings: Homo sapiens; Skin, MDA MB 435, 72 hours
Description: as §1, §2

[36] = system: KARPAS 299; settings: Homo sapiens; Blood, KARPAS 299, 72 hours
Description: as §1, §2

[37] = system: LnCap; settings: Homo sapiens, Prostate, 72 hours
Description: as §1, §2

## CCCOc1c2cccc1Cc1cccc(c1OCc1nccn1C)Cc1cccc(c1OCCC)Cc1cccc(c1OCc1nccn1C)C2 [(2)]
[1]
  IC50: 1470 nM
[2]
  IC50: 2160 nM
[3]
  IC50: 1900 nM
[4]
  IC50: 1450 nM
[5]
  IC50: 3240 nM
[6]
  IC50: 1170 nM
[7]
  IC50: 741 nM
[8]
  IC50: 3380 nM
[9]
  IC50: 1270 nM
[10]
  IC50: 5450 nM
[11]
  IC50: 2700 nM
[12]
  IC50: 543 nM
[13]
  IC50: 1510 nM
[14]
  IC50: 2550 nM
[15]
  IC50: 671 nM
[16]
  IC50: 1720 nM
[17]
  IC50: 1930 nM
[18]
  IC50: 2610 nM
[19]
  IC50: 1890 nM
[20]
  IC50: 1760 nM
[21]
  IC50: 1210 nM
[22]
  IC50: 938 nM
[23]
  IC50: 1720 nM
[24]
  IC50: 1150 nM
[25]
  IC50: 2210 nM
[26]
  IC50: 732 nM
[27]
  IC50: 834 nM
[28]
  IC50: 2900 nM
[29]
  IC50: 3680 nM
[30]
  IC50: 3440 nM
[31]
  IC50: 2150 nM
[32]
  IC50: 1520 nM
[33]
  IC50: 1040 nM
[34]
  IC50: 1620 nM
[35]
  IC50: 2770 nM
[36]
  IC50: 1480 nM
[37]
  IC50: 1190 nM

## CC(C)C[C@H](NC(=O)[C@H](Cc1ccccc1)NC(=O)c1cnccn1)B(O)O [bortezomib, reference compound]
[1]
  IC50: 7.17 nM
[2]
  IC50: 7.37 nM
[3]
  IC50: 13.8 nM
[4]
  IC50: 3.73 nM
[5]
  IC50: 5.37 nM
[6]
  IC50: 5.44 nM
[7]
  IC50: 4.2 nM
[8]
  IC50: 8.6 nM
[9]
  IC50: 29.5 nM
[10]
  IC50: 4.75 nM
[11]
  IC50: 8.57 nM
[12]
  IC50: 4.3 nM
[13]
  IC50: 4.94 nM
[14]
  IC50: 28.8 nM
[15]
  IC50: 3.13 nM
[16]
  IC50: 8.4 nM
[17]
  IC50: 6.8 nM
[18]
  IC50: 12.8 nM
[19]
  IC50: 14.6 nM
[20]
  IC50: 4.74 nM
[21]
  IC50: 4.77 nM
[22]
  IC50: 9.24 nM
[23]
  IC50: 4.53 nM
[24]
  IC50: 5.89 nM
[25]
  IC50: 16.7 nM
[26]
  IC50: 9.24 nM
[27]
  IC50: 12.5 nM
[28]
  IC50: 8.36 nM
[29]
  IC50: 53.1 nM
[30]
  IC50: 19.5 nM
[31]
  IC50: 8.88 nM
[32]
  IC50: 13.2 nM
[33]
  IC50: 13.7 nM
[34]
  IC50: 24 nM
[35]
  IC50: 4.3 nM
[36]
  IC50: 3.96 nM
[37]
  IC50: 14.1 nM
